According to patent US7704490B2 (Institut Pasteur, priority 1998, dated 2010):
Entries after “also recorded” stand apart in the source; their conditions may differ. No end group written: not given here.

What was measured:
mAb 19B11 = experiment: ELISA inhibition of mAb 19B11 binding to IL-2 coated plates; parameters: species or system mouse; settings: control mAb
[1] = Circular dichroism, α helix content; format: physicochemical; settings: for α-helix content: isolated peptide, circular dichroism
mAb H2-8 = experiment: ELISA inhibition of mAb H2-8 binding to IL-2 coated plates; parameters: species or system mouse; settings: mAb at about 50% of maximum binding, preincubated with inhibitor
Procedure: Control is represented by non coated plates.
H2-8 was preincubated with different peptides including five decapeptides (1-10, 5-15, 10-20, 15-25, 20-30).

[2] = Sedimentation-diffusion equilibrium, quaternary structure; format: physicochemical; settings: concentration above 5×10^−6M
Description: The quaternary structure of peptide IP130 was also studied by sedimentation-diffusion equilibrium.

TS1β cells = experiment: TS1β proliferation assay, activity of peptides and IL-2 muteins; format: cell-based, murine; settings: for proliferation of TS1β induced by the peptide: in the absence of IL-2
Procedure: Background of 1.4×10^3 cpm was subtracted. […] TS1β target cells are derived from TS1 murine cells (which only express murine IL-2Rγ), after transfection with the human IL-2Rβ gene.
The response to. IL-2 or peptide alone was substracted from that obtained from both IL-2 and peptide.
The biological activity of IL2 mutant Asp 20→Lys (□) is shown for comparison
TS1β cells were cultured (10^4 cells/well) in 96 wells in flat-bottomed microtiter plates with a final volume of 0.2 ml. […] In order to test the inhibitory effect of mAbs, different concentrations of these reagents were mixed in the culture wells with the respective lymphokines for 30 min at low temperature before adding the cells. […] Cultures were pulsed with 0.5 μCi/well of (3H) TdR after 36 h of incubation and harvested 15 h later.

[3] = system: classical murine cell lines (C30-1, CTLL, HT-2, . . . ); experiment: IP130 effects on classical murine IL-2 assay cell lines; format: cell-based; settings: cells without human IL-2Rβ
Description: IP130 acts only on cell lines expressing human IL-2Rβ. […] Furthermore anti-human IL-2Rβ blocking mAb neutralizes the effects of IP130.

TS1 cells = experiment: IP130 proliferation of TS1 cells with or without human IL-2Rβ; format: cell-based, murine; settings: with or without transfection by human IL-2Rβ gene
Kit 225 cell line = experiment: Protein phosphorylation and c-myc induction in Kit 225 cell line; format: cell-based, human
Description: IP130 induces SHC protein phosphorylation. […] Kinetics of Shc phosphorylation is shown on the left. A Western blot of Shc protein is shown on the right.
Alone the peptide induces the phosphorylation of proteins on Kit 225 cell line. […] STAT-3 and STAT-5 are not activated after IP130 stimulation since IL-2Rγ is not involved in IP130 interaction with Kit 225.

STAT = experiment: Electrophoretic mobility shift assay of STAT activation in KIT225 nuclear extracts; format: cell-based, human; settings: STAT-3 and STAT-5; β-casein, GAS and GIRE probes
NK cells = experiment: Cell cycle entry (S+G2/M) of NK cells in stimulated PBMC; format: cell-based, human
Procedure: Non-specific responses (J+1 in medium) are subtracted. NK cells entry into S+G2/M phases are measured by propidium iodide and analyzed with the ModFit 2.0 software (Becton Dickinson).

[4] = system: K562 or Daudi target cells; experiment: Induction of LAK cells, 51Cr release lysis; format: cell-based, human; settings: for induction of LAK cells: PBMCs stimulated 3 or 6 days, lysis of K562 and Daudi targets
Procedure: K562 or Daudi target cells (5×103 in 0.1 ml) labeled with Na2^51CrO4 (Amersham Pharmacia Biotech) were mixed in round-bottomed microwells with an equal volume of effector cells at various E/T ratios. After 4 hours of incubation at 37° C., the plates were centrifuged at 2,000 g for 2 min, and cell-free supernatant were collected using a Luma Plate 96 cell harvester (Lulac-LSC). Supernatant radioactivity was assayed using an automated MicroBeta 1450 trilux γ-counter (Wallac). Spontaneous release was determined by incubating target cells in medium alone. Maximum release was determined by adding 0.1 ml of 1M HCl to the target cell suspension. The percentage of specific lysis was calculated as follows: 100×(experimental ^51Cr release−spontaneous release)/(maximum ^51Cr release−spontaneous ^51Cr release).

IFN-γ production = experiment: IFN-γ production; format: cell-based
IL-2Rβ = target: T1, IL-2Rβ (Homo sapiens, UniProt P14784); settings: cited from earlier work
T1 sequence (P14784 27-551): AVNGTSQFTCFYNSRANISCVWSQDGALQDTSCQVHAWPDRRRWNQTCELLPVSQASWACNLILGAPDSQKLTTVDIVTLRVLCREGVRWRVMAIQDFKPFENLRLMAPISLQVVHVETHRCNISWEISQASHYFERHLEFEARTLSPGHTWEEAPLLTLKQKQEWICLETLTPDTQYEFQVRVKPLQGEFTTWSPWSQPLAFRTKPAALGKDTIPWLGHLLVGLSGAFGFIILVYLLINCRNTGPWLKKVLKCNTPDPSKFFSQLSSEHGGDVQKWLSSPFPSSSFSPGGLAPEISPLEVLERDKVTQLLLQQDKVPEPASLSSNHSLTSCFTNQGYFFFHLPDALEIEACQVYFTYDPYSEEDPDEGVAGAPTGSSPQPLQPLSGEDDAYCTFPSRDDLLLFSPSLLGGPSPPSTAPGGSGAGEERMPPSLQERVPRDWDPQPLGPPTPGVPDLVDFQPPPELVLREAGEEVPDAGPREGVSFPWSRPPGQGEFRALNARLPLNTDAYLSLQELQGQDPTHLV

IL-2R = experiment: Affinity of IL-2 mutant for IL-2R; format: binding; settings: compared with IL-2

With “peptide 1-22: synthetic IL-2 peptide, residues 1-22 (APTSSSTKKTQLQLEHLLLDLQ; UniProt P60568 21-42, looked up, fragment)” the “inhibition of the binding of mAb 19B11 to IL-2” value (mAb 19B11) was “inhibited” and the α-helix content [1] was 13%±5%.
In the case of APTSSSTKKTQLQLEHLLLDLQMILNGINN [IP130], the “inhibition of the binding of mAb H2-8 to IL-2” value (mAb H2-8) is reported as “most efficient inhibitor”, the “inhibition of the binding of mAb 19B11 to IL-2” value (mAb 19B11) is reported as “inhibited” and the “residues in an α helix configuration” value ([1]; 20° C., phosphate buffer (20 mM, pH 7.2)) is reported as 50%. The α-helix content [1] was 50%±7%, the quaternary structure [2] was “most of the molecules are in a tetrameric form” and the “IC-50 of proliferation and of synergy with IL-2” value (TS1β cells; both activities at comparable concentrations) was “IC-50≅μM”. For the same substance, the “proliferation of TS1β induced by the peptide” value (TS1β cells) was “stimulates the proliferation”, the “synergy with IL-2 on TS1β proliferation” value (TS1β cells; in the presence of IL-2) was “strong synergy” and the “sensitivity of classical murine cell lines to the peptide” value [3] was “insensitive”. For the same substance, the “proliferation of TS1 cells in the presence of IP130” value (TS1 cells) was “TS1 cells only proliferate after transfection by the human IL-2Rβ gene”, the c-myc induction (Kit 225 cell line) was “observed” and the “phosphorylation of IL-2Rβ” value (Kit 225 cell line; immunoprecipitation, blotting with mAb 4G10 (anti-Ptyr)) was “phosphorylated IL-2Rβ is identified”. For the same substance, the “phosphorylation of Shc” value (Kit 225 cell line; peptide alone) was “the kinase Shc is easily recognized; also recorded: phosphorylated after a ten minute stimulation”, the STAT activation (STAT) was “not activated; also recorded: does not induce STAT activity” and the “entry of NK cells into the cell cycle” value (NK cells) was “induces NK cells to enter into the cell cycle”. The “induction of LAK cells” value [4] was “able to induce LAK cells in a concentration dependent manner; also recorded: potent LAK cell response”, the “LAK response compared with IL-2, day 3” value ([4]; day 3) was “weaker than that of IL-2” and the “LAK response compared with IL-2, day 6” value ([4]; day 6) was “comparable”. The “induction of IFN-γ production” value (IFN-γ production) was “ability to induce LAK cells and IFNγ production”.
In the case of “IL2 Asp 20→Lys mutant: IL-2 with substitution Asp20 by Lys [reference compound]”, the “biological activity on Ts1β cells” value (TS1β cells; 5×10-3 to 10 nM, compared with IL-2 (FIG. 18)) is listed as “clearly reduced” and the “binding to IL-2Rβ” value (IL-2Rβ) is listed as “prevents binding to IL-2Rβ”.
In the case of “peptide 1-10: synthetic IL-2 decapeptide, residues 1-10 (APTSSSTKKT-NH2; UniProt P60568 21-30, looked up, fragment)”, the “inhibition of the binding of mAb 19B11 to IL-2” value (mAb 19B11) is reported as “inhibited”.
For “IP131 Asp 20→Lys: Peptide 1-31 mutated at position 20 (Asp→Lys), SEQ ID NO:8 (APTSSSTKKTQLQLEHLLLKLQMILNGINNY)”, the “proliferation of TS1β induced by the peptide” value (TS1β cells) was “maintains its inductive capacity on proliferation”, the “induction of LAK cells” value [4] was “capacity to generate LAK cells” and the “induction of IFN-γ production” value (IFN-γ production) was “induce IFN-γ production”.
With “IL-2 Pro125: IL-2 mutant IL-2 Pro125 (Cys→Pro) [reference compound]” the “maximum proliferation of TS1β” value (TS1β cells; higher concentrations of mutant) was “without affecting the maximum proliferation” and the “affinity for IL-2R” value (IL-2R) was “slightly reduces the affinity”.
